Test results as given in patent USRE38551E1, “Anticonvulsant enantiomeric amino acid derivatives” (priority 1996, dated 2004).
Where two headings read alike, the source gives them in different places. Marks after values point to notes of the source that are not given here.

Legend:
[1] = test system: liver microsomal system; test: 7-day liver microsomal studies; assay type: in vivo, rats; conditions: rat, in vivo, 48 mg/kg
Experimental: Two of the three groups of animals subjected to the hexobarbital sleep time test (chronically treated and vehicle control groups) were continued on their respective original treatment regimen for two days (days 6 and 7) and 24 hours later (day 8) subjected to liver microsomal studies. The rats were decapitated and the livers perfused with 0.9% sodium chloride solution. The livers were removed, weighed, and homogenized in 0.25M sucrose. Microsomes were prepared and their drug metabolizing capabilities (microsomal protein yield; cytochrome P-450 concentration; p-nitroanisole O-demethylase and NADPH cytochrome c reductase activities; norbenzphetamine MI complex formation; and glucuronyl transferase, erythromycin demethylase, and ethylmorphine demethylase activities) measured (Arch. Biochem. Biophys. 143: 318-329, 1971).

[2] = test system: Crl:CD BR Charles River rats
Experimental: II. Five groups of Crl:CD® BR Charles River rats were each exposed to BAMP or a control substance (0.5% methylcellulose [400 Cps] aqueous solution in distilled water) according to the following dosage schedule:
Group 1—vehicle control (10 males, 10 females), 0 mg/kg/day
Group 2—low (10 males, 10 females), 10 mg/kg/day
Group 3—mid low (10 males, 10 females), 30 mg/kg/day
Group 4—mid high (10 males, 10 females), 100 mg/kg/day
Group 5—high (10 males, 10 females), 300 mg/kg/day
Exposure was by oral gavage, once daily, for a period of at least 30 consecutive days, after which all animals were sacrificed for pathologic evaluation.
All animals were weighed once prior to initiation of dosing and weekly thereafter. Food-fasted (overnight) blood samples for clinical chemistry and hematology were collected at termination. Blood samples were collected from the orbital venous plexus using carbon dioxide (mixed with oxygen) as an anesthetic.
All animals were sacrificed, at the appropriate time, by exsanguination, under barbiturate anesthesia, and all were subjected to a necropsy examination.
Clinical observations were reviewed at necropsy, and all grossly observed abnormalities were entered directly into the computerized data collection system. Adrenals, brain with brainstem, heart, kidneys, liver, ovaries, pituitary, testes with epididymides, and thyroid with parathyroids were weighted from each animal. The pituitary and thyroid with parathyroids were weighed after fixation and all of the other organs were weighed at the time of necropsy.
As required by the protocol, histologic evaluations were conducted on liver only from all animals of Groups 1 (control) and 5 (high). All histologic findings were entered directly into the computerized data capture system. Lesions were graded as to relative severity or degree of involvement (1=minimal, 2=slight, 3=moderate, 4=moderately severe, 5=severe). In general, minimal represents the least consistently recognizable degree of any given histoniorphologic alteration, while severe would represent the most extreme degree reasonably possible, with the other three grades occupying a continuum between the two extremes. The grades are subjective, comparative evaluations, based on morphology alone and are not intended by themselves to imply any degree of functional impairment.

[3] = female, group 2, 10 mg/kg/day, 30 days oral
[4] = female, group 3, 30 mg/kg/day, 30 days oral
[5] = female, group 4, 100 mg/kg/day × 30 days oral
[6] = female, group 4, 100 mg/kg/day, 30 days oral
[7] = female, group 5, 300 mg/kg/day × 30 days oral
[8] = female, group 5, 300 mg/kg/day, 30 days oral
[9] = male, group 2, 10 mg/kg/day, 30 days oral
[10] = male, group 3, 30 mg/kg/day, 30 days oral
[11] = male, group 4, 100 mg/kg/day × 30 days oral
[12] = male, group 4, 100 mg/kg/day, 30 days oral
[13] = male, group 5, 300 mg/kg/day × 30 days oral
[14] = male, group 5, 300 mg/kg/day, 30 days oral

## CC(=O)NC(C)C(=O)NCc1ccccc1 (racemic) [compound 1, N-Acetyl-D,L-alanine-N′-benzylamide]
[1]; Sprague Dawley, 7 days
  NADPH cytochrome c reductase activity: 105.0 ± 4.1 nmol/mg/min
  p-nitroanisole O-demethylase activity: 0.62 ± 0.07 nmol/mg/min
[1]
  liver microsomal enzyme activity: unaltered

## COC[C@@H](NC(C)=O)C(=O)NCc1ccccc1 [Ex. 1, 2, (R)-N-Benzyl-2-Acetamide-3-methoxypropionamide]
[2]; [3]
  ESOPHAGUS (ES) NOT REMARKABLE (number of animals): 10
  HEART (HT) ENLARGED (number of animals affected): 0
  HEART (HT) NOT REMARKABLE (number of animals): 10
  LIVER (LI) ENLARGED (number of animals affected): 0
  LIVER (LI) NOT REMARKABLE (number of animals): 10
  LIVER ORGAN-TO-BODY WT, mean: 3.237%
  LUNG (LU) NOT REMARKABLE (number of animals): 10
  PARATHYROID (PT) NOT REMARKABLE (number of animals): 10
  SPLEEN (SP) NOT REMARKABLE (number of animals): 10
  TERMINAL BODY WT, mean: 214.1 g
  TRACHEA (TR) NOT REMARKABLE (number of animals): 10
[2]; [4]
  ESOPHAGUS (ES) NOT REMARKABLE (number of animals): 10
  HEART (HT) ENLARGED (number of animals affected): 0
  HEART (HT) NOT REMARKABLE (number of animals): 10
  LIVER (LI) ENLARGED (number of animals affected): 0
  LIVER (LI) NOT REMARKABLE (number of animals): 10
  LIVER ORGAN-TO-BODY WT, mean: 3.244%
  LUNG (LU) NOT REMARKABLE (number of animals): 10
  PARATHYROID (PT) NOT REMARKABLE (number of animals): 10
  SPLEEN (SP) NOT REMARKABLE (number of animals): 10
  TERMINAL BODY WT, mean: 207.0 g
  TRACHEA (TR) NOT REMARKABLE (number of animals): 10
[2]; [5]
  LIVER ORGAN-TO-BODY WT, mean: 3.608%
  TERMINAL BODY WT, mean: 218.3 g
[2]; [6]
  ESOPHAGUS (ES) NOT REMARKABLE (number of animals): 10
  HEART (HT) ENLARGED (number of animals affected): 0
  HEART (HT) NOT REMARKABLE (number of animals): 10
  LIVER (LI) ENLARGED (number of animals affected): 0
  LIVER (LI) NOT REMARKABLE (number of animals): 10
  LUNG (LU) NOT REMARKABLE (number of animals): 10
  PARATHYROID (PT) NOT REMARKABLE (number of animals): 10
  SPLEEN (SP) NOT REMARKABLE (number of animals): 10
  TRACHEA (TR) NOT REMARKABLE (number of animals): 10
[2]; [7]
  LIVER ORGAN-TO-BODY WT, mean: 3.832* %
  TERMINAL BODY WT, mean: 205.9 g
[2]; [8]
  ESOPHAGUS (ES) NOT REMARKABLE (number of animals): 10
  HEART (HT) ENLARGED (number of animals affected): 0
  HEART (HT) NOT REMARKABLE (number of animals): 10
  LIVER (LI) ENLARGED (number of animals affected): 0
  LIVER (LI) NOT REMARKABLE (number of animals): 10
  LUNG (LU) NOT REMARKABLE (number of animals): 10
  PARATHYROID (PT) NOT REMARKABLE (number of animals): 10
  SPLEEN (SP) NOT REMARKABLE (number of animals): 10
  TRACHEA (TR) NOT REMARKABLE (number of animals): 10
[2]; [9]
  ESOPHAGUS (ES) NOT REMARKABLE (number of animals): 10
  HEART (HT) ENLARGED (number of animals affected): 0
  HEART (HT) NOT REMARKABLE (number of animals): 10
  LIVER (LI) ENLARGED (number of animals affected): 0
  LIVER (LI) NOT REMARKABLE (number of animals): 10
  LIVER ORGAN-TO-BODY WT, mean: 3.248%
  LUNG (LU) NOT REMARKABLE (number of animals): 10
  PARATHYROID (PT) NOT REMARKABLE (number of animals): 10
  SPLEEN (SP) NOT REMARKABLE (number of animals): 10
  TERMINAL BODY WT, mean: 342.0 g
  TRACHEA (TR) NOT REMARKABLE (number of animals): 10
[2]; [10]
  ESOPHAGUS (ES) NOT REMARKABLE (number of animals): 10
  HEART (HT) ENLARGED (number of animals affected): 0
  HEART (HT) NOT REMARKABLE (number of animals): 10
  LIVER (LI) ENLARGED (number of animals affected): 0
  LIVER (LI) NOT REMARKABLE (number of animals): 10
  LIVER ORGAN-TO-BODY WT, mean: 3.278%
  LUNG (LU) NOT REMARKABLE (number of animals): 10
  PARATHYROID (PT) NOT REMARKABLE (number of animals): 10
  SPLEEN (SP) NOT REMARKABLE (number of animals): 10
  TERMINAL BODY WT, mean: 349.9 g
  TRACHEA (TR) NOT REMARKABLE (number of animals): 10
[2]; [11]
  LIVER ORGAN-TO-BODY WT, mean: 3.351%
  TERMINAL BODY WT, mean: 351.5 g
[2]; [12]
  ESOPHAGUS (ES) NOT REMARKABLE (number of animals): 10
  HEART (HT) ENLARGED (number of animals affected): 0
  HEART (HT) NOT REMARKABLE (number of animals): 10
  LIVER (LI) ENLARGED (number of animals affected): 0
  LIVER (LI) NOT REMARKABLE (number of animals): 10
  LUNG (LU) NOT REMARKABLE (number of animals): 10
  PARATHYROID (PT) NOT REMARKABLE (number of animals): 10
  SPLEEN (SP) NOT REMARKABLE (number of animals): 10
  TRACHEA (TR) NOT REMARKABLE (number of animals): 10
[2]; [13]
  LIVER ORGAN-TO-BODY WT, mean: 4.016* %
  TERMINAL BODY WT, mean: 358.8 g
[2]; [14]
  ESOPHAGUS (ES) NOT REMARKABLE (number of animals): 10
  HEART (HT) ENLARGED (number of animals affected): 0
  HEART (HT) NOT REMARKABLE (number of animals): 10
  LIVER (LI) ENLARGED (number of animals affected): 1
  LIVER (LI) NOT REMARKABLE (number of animals): 9
  LUNG (LU) NOT REMARKABLE (number of animals): 10
  PARATHYROID (PT) NOT REMARKABLE (number of animals): 10
  SPLEEN (SP) NOT REMARKABLE (number of animals): 10
  TRACHEA (TR) NOT REMARKABLE (number of animals): 10
[2]; rats, 30 days chronic dosing
  multiple of anti-convulsant dose causing no adverse histologic effects: 76.9
